For seven compounds, melting point and Ki results are on record in US7618961B2, “Inhibitors of 11-beta-hydroxy steroid dehydrogenase type 1” (Biovitrum AB, priority 2000, dated 2009).

Tested on in one data set: not given
Experiment: not given
Settings: not given
Regarding `Cc1c(Cl)cccc1S(=O)(=O)Nc1nc(CCN2CCOCC2)cs1.Cl` [Example 204A, 3-Chloro-2-methyl-N-{4-[2-(4-morpholinyl)ethyl]-1,3thiazol-2-yl}benzenesulfonamide hydrochloride], the melting point lay in the range of 197 to 198 °C.

In a further data set the target is T1, human 11-β-hydroxysteroid dehydrogenase type-1 enzyme (11-β-HSD1) (Homo sapiens, UniProt P28845).
T1 construct: made in house; host or cells: Pichia pastoris
T1 sequence (P28845 whole entry): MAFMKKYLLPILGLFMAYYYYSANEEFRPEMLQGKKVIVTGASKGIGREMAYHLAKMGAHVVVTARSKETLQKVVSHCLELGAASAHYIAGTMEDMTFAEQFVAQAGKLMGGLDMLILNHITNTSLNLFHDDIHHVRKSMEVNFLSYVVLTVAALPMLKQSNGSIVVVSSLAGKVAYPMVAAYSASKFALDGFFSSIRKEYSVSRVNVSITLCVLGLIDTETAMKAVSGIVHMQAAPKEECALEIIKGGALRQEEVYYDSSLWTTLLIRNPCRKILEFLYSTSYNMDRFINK
Briefly: Scintillation proximity assay: human 11-β-HSD1 enzyme assay. In kind it is biochemical. The following applies: Ki calculated from IC50 (Cheng Prushoff). From the text: [1, 2(n)-^3H]-cortisone was purchased from Amersham Pharmacia Biotech. Anti-cortisol monoclonal mouse antibody, clone 6D6.7 was obtained from Immunotech and Scintillation proximity assay (SPA) beads coated with monoclonal antimouse antibodies were from Amersham Pharmacia Biotech. NADPH, tetrasodium salt was from Calbiochem and glucose-6-phosphate (G-6-P) was supplied by Sigma. The human 11-β-hydroxysteroid dehydrogenase type-1 enzyme (11-β-HSD1) was expressed in Pichia pastoris. 18-β-glycyrrhetinic acid (GA) was obtained from Sigma. The serial dilutions of the compounds were performed on a Tecan Genesis RSP 150.
Compounds to be tested were dissolved in DMSO (1 mM) and diluted in 50 mM Tris-HCl, pH 7.2 containing 1 mM EDTA.
The multiplication of plates was done on a WallacQuadra. The amount of the product [^3H]-cortisol, bound to the beads was determined in a Packard, Top Count microplate liquid scintillation counter.
The 11-β-HSD1 enzyme assay was carried out in 96 well microtiter plates (Packard, Optiplate) in a total well volume of 220 μL and contained 30 mM Tris-HCl, pH 7.2 with 1 mM EDTA, a substrate mixture tritiated Cortisone/NADPH (175 nM/181 μM), G-6-P (1 mM) and inhibitors in serial dilutions (9 to 0.15 μM). Reactions were initiated by the addition of human 11-β-HSD1, either as Pichia pastoris cell homogenate or microsomes prepared from Pichia pastoris (the final amount of enzyme used was varied between 0.057 to 0.11 mg/mL). Following mixing, the plates were shaken for 30 to 45 minutes at room temperature. The reactions were terminated with 10 μL 1 mM GA stop solution. Monoclonal mouse antibody was then added (10 μL of 4 μM) followed by 100 μL of SPA beads (suspended according to the manufacturers instructions). Appropriate controls were set up by omitting the 11-β-HSD1 to obtain the non-specific binding (NSB) value.
The plates were covered with plastic film and incubated on a shaker for 30 minutes, at room temperature, before counting. The amount of [^3H]-cortisol, bound to the beads was determined in a microplate liquid scintillation counter.
The calculation of the Ki values for the inhibitors was performed by use of Activity Base. The Ki value is calculated from IC50 and the Km value is calculated using the Cheng Prushoff equation (with reversible inhibition that follows the Michaelis-Menten equation): […] [Cheng, Y. C.; Prushoff, W. H. Biochem. Pharmacol. 1973, 22, 3099-3108]. The IC50 is measured experimentally in an assay wherein the decrease of the turnover of cortisone to cortisol is dependent on the inhibition potential of each substance. The Ki values of the compounds of the present invention for the 11-β-HSD1 enzyme lie typically between about 10 nM and about 10 μM. Illustrative of the invention, the following Ki values have been determined in the human 11-β-HSD1 enzyme assay (see Table 1): […]
As for `Cc1c(Cl)cccc1S(=O)(=O)Nc1nc(CCN2CCOCC2)cs1.Cl` [Example 204A, 3-Chloro-2-methyl-N-{4-[2-(4-morpholinyl)ethyl]-1,3thiazol-2-yl}benzenesulfonamide hydrochloride], the Ki is 91 nM.
For `CCOC(=O)Cc1csc(NS(=O)(=O)c2cc(C)c(Cl)cc2Cl)n1` [Example 1A, Ethyl (2-{[(2,4-dichloro-5-methylphenyl)sulfonyl]amino}-1,3-thiazol-4-yl)acetate], the inhibition constant (Ki) is 32 nM.
Still for that read-out and setting: in the case of `O=C(Cc1csc(NS(=O)(=O)c2ccc(-c3ccccc3)cc2)n1)N1CCOCC1` [Example 151A, N-{4-[2-(4-morpholinyl)-2-oxoethyl]-1,3-thiazol-2-yl}[1,1′-biphenyl]-4-sulfonamide] it was 21 nM; in that of `Cc1c(Cl)cccc1S(=O)(=O)Nc1nc(CCO)cs1` [Example 181A, 3-Chloro-N-[4-(2-hydroxyethyl)-1,3-thiazol-2-yl]-2-methylbenzenesulfonamide], 53 nM; in that of `Cc1c(Cl)cccc1S(=O)(=O)Nc1nc(CCOc2cccnc2)cs1` [Example 189A, 3-Chloro-2-methyl-N-{4-[2-(3-pyridinyloxy)ethyl]-1,3-thiazol-2-yl}benzenesulfonamide], 299 nM.
The same measure, in the same setting: the value for `CCCC(=O)Cc1csc(NS(=O)(=O)c2cccc(Cl)c2C)n1` [Example 179A, 3-Chloro-2-methyl-N-[4-(2-oxopentyl)-1,3-thiazol-2-yl]benzenesulfonamide] was 14 nM; that for `O=C(Cc1csc(NS(=O)(=O)c2c(Cl)cc(Cl)cc2Cl)n1)N1CCOCC1` [Example 149A, 2,4,6-Trichloro-N-{4-[2-(4-morpholinyl)-2-oxoethyl]-1,3-thiazol-2-yl}benzenesulfonamide] was 51 nM.
